Measurements as given in patent US8288385B2, “6-(3-aza-bicyclo[3.1.0]hex-3-yl)-2-phenyl-pyrimidines” (Actelion Pharmaceuticals Ltd., priority 2009, dated 2012).
pIC50: −log10 of the molar value.

Biological target: T1, human P2Y12 receptor (Homo sapiens, UniProt Q9H244)
T1 construct: expressed in transfected cells; host or cells: Chinese Hamster Ovary (CHO) cells
Experiment: P2Y12 receptor binding assay
Settings: CHO cells with recombinant expression of the human P2Y12 receptor; tritium-labeled 2-methyl-S-ADP; RT, 2 hours
Procedure: P2Y12 Receptor Binding Assay
Chinese Hamster Ovary (CHO) cells with recombinant expression of the human P2Y12 receptor were cultured in 24 well cell-culture plates. Cells were washed three times with binding buffer (50 mM Tris pH 7.4, 100 mM NaCl, 1 mM EDTA, 0.5% BSA). The cells were then incubated with 0.5 ml per well binding buffer containing tritium-labeled 2-methyl-thio-adenosine 5′-diphosphate (2-methyl-S-ADP) (between 100,000 and 300,000 dpm per well) and various concentrations of test compounds. After incubation at RT for 2 hours, cells were washed three times with binding buffer. Then, cells were solubilized by addition of 0.5 ml solubilization buffer (SDS, NaOH, EDTA). The content of each well was then transferred into beta-counter vials and 2.0 ml of Ultima Gold Scintillation liquid was added.

T1 sequence (Q9H244 whole entry): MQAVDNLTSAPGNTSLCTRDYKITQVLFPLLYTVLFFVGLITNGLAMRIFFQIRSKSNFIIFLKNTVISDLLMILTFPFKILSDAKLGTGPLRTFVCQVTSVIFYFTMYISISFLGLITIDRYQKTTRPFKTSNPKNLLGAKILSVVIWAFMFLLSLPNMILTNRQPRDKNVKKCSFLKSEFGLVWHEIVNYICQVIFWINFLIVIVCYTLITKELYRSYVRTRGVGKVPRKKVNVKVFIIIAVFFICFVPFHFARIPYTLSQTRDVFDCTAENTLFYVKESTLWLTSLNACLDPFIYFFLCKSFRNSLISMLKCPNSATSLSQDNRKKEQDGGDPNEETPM

| Structure (SMILES) | pIC50 |
| --- | --- |
| CCCCOC(=O)N1CCN(C(=O)[C@H](CC2CC2)NC(=O)c2cc(N3C[C@@H]4[C@H](C3)[C@@H]4C(=O)O)nc(-c3ccccc3)n2)CC1 [Example 40, (1α,5α,6β)-3-{6-[(S)-2-(4-Butoxycarbonyl-piperazin-1-yl)-1-cyclopropylmethyl-2-oxo-ethylcarbamoyl]-2-phenyl-pyrimidin-4-yl}-3-aza-bicyclo[3.1.0]hexane-6-carboxylic acid] | 6.84 |
| CCCCOC(=O)N1CCN(C(=O)[C@@H](NC(=O)c2cc(N3C[C@@H]4[C@H](C3)[C@@H]4C(=O)O)nc(-c3ccccc3)n2)C2CC2)CC1 [Example 41, (1α,5α,6β)-3-{6-[(S)-2-(4-Butoxycarbonyl-piperazin-1-yl)-1-cyclopropyl-2-oxo-ethylcarbamoyl]-2-phenyl-pyrimidin-4-yl}-3-aza-bicyclo[3.1.0]hexane-6-carboxylic acid] | 7.66 |
| CCCCOC(=O)N1CCN(C(=O)[C@H](Cc2ccccc2)NC(=O)c2cc(N3CC4C(C3)C4C(=O)O)nc(-c3ccccc3)n2)CC1 (stereo partly drawn) [Example 46, (1α,5α,6α)-3-{6-[(S)-1-Benzyl-2-(4-butoxycarbonyl-piperazin-1-yl)-2-oxo-ethylcarbamoyl]-2-phenyl-pyrimidin-4-yl}-3-aza-bicyclo[3.1.0]hexane-6-carboxylic acid] | 6.02 |
| CCCCOC(=O)N1CCN(C(=O)C(NC(=O)c2cc(N3CC4C(C3)C4C(=O)O)nc(-c3ccccc3)n2)C(C)O)CC1 [Example 42, (1α,5α,6β)-3-{6-[(1S,2R)-1-(4-Butoxycarbonyl-piperazine-1-carbonyl)-2-hydroxy-propylcarbamoyl]-2-phenyl-pyrimidin-4-yl}-3-aza-bicyclo[3.1.0]hexane-6-carboxylic acid] | 7.30 |
| CCCCOC(=O)N1CCN(C(=O)[C@H](CC(C)C)NC(=O)c2cc(N3C[C@@H]4[C@H](C3)[C@@H]4C(=O)O)nc(-c3ccccc3)n2)CC1 [Example 39, (1α,5α,6β)-3-{6-[(S)-1-(4-Butoxycarbonyl-piperazine-1-carbonyl)-3-methyl-butylcarbamoyl]-2-phenyl-pyrimidin-4-yl}-3-aza-bicyclo[3.1.0]hexane-6-carboxylic acid] | 6.91 |
| CCCCOC(=O)N1CCN(C(=O)[C@H](CCC(=O)O)NC(=O)c2cc(N3C[C@@H]4[C@H](N)[C@@H]4C3)nc(-c3ccccc3)n2)CC1 [Example 8, 4-((S)-2-{[6-((1α,5α,6β)-6-Amino-3-aza-bicyclo[3.1.0]hex-3-yl)-2-phenyl-pyrimidine-4-carbonyl]-amino}-4-carboxy-butyryl)-piperazine-1-carboxylic acid butyl ester] | 8.15 |
| CCCCOC(=O)N1CCN(C(=O)CNC(=O)c2cc(N3C[C@@H]4[C@H](C3)[C@@H]4C(=O)O)nc(-c3ccccc3)n2)CC1 [Example 33, (1α,5α,6β)-3-{6-[2-(4-Butoxycarbonyl-piperazin-1-yl)-2-oxo-ethylcarbamoyl]-2-phenyl-pyrimidin-4-yl}-3-aza-bicyclo[3.1.0]hexane-6-carboxylic acid] | 7.17 |
| CC(C)[C@H](NC(=O)c1cc(N2C[C@@H]3C(C(=O)O)[C@@H]3C2)nc(-c2ccccc2)n1)C(=O)N1CCN(C(=O)OCc2ccccc2)[C@H](C)C1 (stereo partly drawn) [Example 32, (1α,5α,6β)-3-{6-[(S)-1-((R)-4-Benzyloxycarbonyl-3-methyl-piperazine-1-carbonyl)-2-methyl-propylcarbamoyl]-2-phenyl-pyrimidin-4-yl}-3-aza-bicyclo[3.1.0]hexane-6-carboxylic acid] | 6.32 |
| CCCCOC(=O)N1CCN(C(=O)[C@H](CCC(=O)O)NC(=O)c2cc(N3C[C@@H]4[C@H](C3)[C@H]4C(=O)O)nc(-c3ccccc3)n2)CC1 [Example 1, (1α,5α,6α)-3-{6-[(S)-1-(4-Butoxycarbonyl-piperazine-1-carbonyl)-3-carboxy-propylcarbamoyl]-2-phenyl-pyrimidin-4-yl}-3-aza-bicyclo[3.1.0]hexane-6-carboxylic acid] | 8.00 |
| CCCCOC(=O)N1CCN(C(=O)[C@@H](NC(=O)c2cc(N3C[C@@H]4[C@H](C3)[C@@H]4C(=O)O)nc(-c3ccccc3)n2)C(C)C)CC1 [Example 11, (1α,5α,6β)-3-{6-[(S)-1-(4-Butoxycarbonyl-piperazine-1-carbonyl)-2-methyl-propylcarbamoyl]-2-phenyl-pyrimidin-4-yl}-3-aza-bicyclo[3.1.0]hexane-6-carboxylic acid] | 7.85 |
| CCCCOC(=O)N1CCN(C(=O)[C@@H](NC(=O)c2cc(N3C[C@@H]4[C@@H](CC(=O)O)[C@@H]4C3)nc(-c3ccccc3)n2)C(C)C)CC1 [Example 24, 4-((S)-2-{[6-((1α,5α,6α)-6-Carboxymethyl-3-aza-bicyclo[3.1.0]hex-3-yl)-2-phenyl-pyrimidine-4-carbonyl]-amino}-3-methyl-butyryl)-piperazine-1-carboxylic acid butyl ester] | 7.89 |
| CCCCOC(=O)N1CCN(C(=O)[C@@H](NC(=O)c2cc(N3C[C@@H]4[C@H](CC(=O)O)[C@@H]4C3)nc(-c3ccccc3)n2)C(C)C)CC1 [Example 25, 4-((S)-2-{[6-((1α,5α,6β)-6-Carboxymethyl-3-aza-bicyclo[3.1.0]hex-3-yl)-2-phenyl-pyrimidine-4-carbonyl]-amino}-3-methyl-butyryl)-piperazine-1-carboxylic acid butyl ester] | 7.89 |
| CCCCOC(=O)N1CCN(C(=O)[C@H](CCC(=O)O)NC(=O)c2cc(N3C[C@@H]4[C@H](C3)[C@@H]4C(=O)O)nc(-c3ccccc3)n2)CC1 [Example 2, (1α,5α,6β)-3-{6-[(S)-1-(4-Butoxycarbonyl-piperazine-1-carbonyl)-3-carboxy-propylcarbamoyl]-2-phenyl-pyrimidin-4-yl}-3-aza-bicyclo[3.1.0]hexane-6-carboxylic acid] | 8.43 |
| CCCCOC(=O)N1CCN(C(=O)[C@@H](NC(=O)c2cc(N3C[C@@H]4[C@H](C#N)[C@@H]4C3)nc(-c3ccccc3)n2)C(C)C)CC1 [Example 21, 4-((S)-2-{[6-((1α,5α,6β)-6-Cyano-3-aza-bicyclo[3.1.0]hex-3-yl)-2-phenyl-pyrimidine-4-carbonyl]-amino}-3-methyl-butyryl)-piperazine-1-carboxylic acid butyl ester] | 8.00 |
| CCCCOC(=O)N1CCN(C(=O)[C@H](CC)NC(=O)c2cc(N3C[C@@H]4[C@H](C3)[C@@H]4C(=O)O)nc(-c3ccccc3)n2)CC1 [Example 36, (1α,5α,6β)-3-{6-[(S)-1-(4-Butoxycarbonyl-piperazine-1-carbonyl)-propylcarbamoyl]-2-phenyl-pyrimidin-4-yl}-3-aza-bicyclo[3.1.0]hexane-6-carboxylic acid] | 7.02 |
| CCCCCOC(=O)N1CCN(C(=O)[C@@H](NC(=O)c2cc(N3C[C@@H]4[C@H](C3)[C@@H]4C(=O)O)nc(-c3ccccc3)n2)C(C)C)CC1 [Example 15, (1α,5α,6β)-3-{6-[(S)-2-Methyl-1-(4-pentyloxycarbonyl-piperazine-1-carbonyl)-propylcarbamoyl]-2-phenyl-pyrimidin-4-yl}-3-aza-bicyclo[3.1.0]hexane-6-carboxylic acid] | 7.82 |
| CCCCOC(=O)N1CCN(C(=O)[C@H](CCC)NC(=O)c2cc(N3C[C@@H]4[C@H](C3)[C@@H]4C(=O)O)nc(-c3ccccc3)n2)CC1 [Example 37, (1α,5α,6β)-3-{6-[(S)-1-(4-Butoxycarbonyl-piperazine-1-carbonyl)-butylcarbamoyl]-2-phenyl-pyrimidin-4-yl}-3-aza-bicyclo[3.1.0]hexane-6-carboxylic acid] | 6.91 |
| CCCCOC(=O)N1CCN(C(=O)[C@H](CCC(=O)O)NC(=O)c2cc(N3C[C@@H]4[C@@H](N)[C@@H]4C3)nc(-c3ccccc3)n2)CC1 [Example 7] | 8.12 |
| CCCCOC(=O)N1CCN(C(=O)[C@H](CP(=O)(OCOC(=O)OCC)OCOC(=O)OCC)NC(=O)c2cc(N3C[C@@H]4[C@H](C3)[C@H]4C(=O)OCC)nc(-c3ccccc3)n2)CC1 [Example 54, (1α,5α,6α)-3-{6-[(R)-1-(Bis-ethoxycarbonyloxymethoxy-phosphorylmethyl)-2-(4-butoxycarbonyl-piperazin-1-yl)-2-oxo-ethylcarbamoyl]-2-phenyl-pyrimidin-4-yl}-3-aza-bicyclo[3.1.0]hexane-6-carboxylic acid ethyl ester] | 7.82 |
| CCCCOC(=O)N1CCN(C(=O)[C@H](CCc2nnn[nH]2)NC(=O)c2cc(N3C[C@@H]4[C@H](C3)[C@@H]4C(=O)O)nc(-c3ccccc3)n2)CC1 [Example 49, (1α,5α,6β)-3-{6-[(S)-1-(4-Butoxycarbonyl-piperazine-1-carbonyl)-3-(1H-tetrazol-5-yl)-propylcarbamoyl]-2-phenyl-pyrimidin-4-yl}-3-aza-bicyclo[3.1.0]hexane-6-carboxylic acid] | > 8.49 |
| CCCCOC(=O)N1CCN(C(=O)[C@@H](NC(=O)c2cc(N3C[C@@H]4[C@H](C3)[C@@H]4C(N)=O)nc(-c3ccccc3)n2)C(C)C)CC1 [Example 20, 4-((S)-2-{[6-((1α,5α,6β)-6-Carbamoyl-3-aza-bicyclo[3.1.0]hex-3-yl)-2-phenyl-pyrimidine-4-carbonyl]-amino}-3-methyl-butyryl)-piperazine-1-carboxylic acid butyl ester] | 7.70 |
| CCCCOC(=O)N1CCN(C(=O)[C@H](CCCC)NC(=O)c2cc(N3C[C@@H]4[C@H](C3)[C@@H]4C(=O)O)nc(-c3ccccc3)n2)CC1 [Example 38, (1α,5α,6β)-3-{6-[(S)-1-(4-Butoxycarbonyl-piperazine-1-carbonyl)-pentylcarbamoyl]-2-phenyl-pyrimidin-4-yl}-3-aza-bicyclo[3.1.0]hexane-6-carboxylic acid] | 6.87 |
